From ChEMBL document CHEMBL4673283, “Penisarins A and B, Sesquiterpene Coumarins Isolated from an Endophytic Penicillium sp” (J Nat Prod, 2020)
Calls of active or inactive are those of the source. The rule behind the calls is not given here.

Columns and labels:
Format in all cases: functional, cell-based
[1] = tested on: HL-60; assay: Cytotoxicity against human HL-60 cells assessed as reduction in cell viability after 48 hrs by MTS assay; settings: HL-60, 48 h
[2] = tested on: SMMC-7721; assay: Cytotoxicity against human SMMC-7721 cells assessed as reduction in cell viability after 48 hrs by MTS assay; settings: SMMC-7721, 48 h
[3] = tested on: A549; assay: Cytotoxicity against human A549 cells assessed as reduction in cell viability after 48 hrs by MTS assay; settings: A549, 48 h
[4] = tested on: MCF7; assay: Cytotoxicity against human MCF7 cells assessed as reduction in cell viability after 48 hrs by MTS assay; settings: MCF7, 48 h
[5] = tested on: SW480; assay: Cytotoxicity against human SW480 cells assessed as reduction in cell viability after 48 hrs by MTS assay; settings: SW480, 48 h
[6] = tested on: RAW264.7; assay: Inhibition of LPS-induced NO production in mouse RAW264.7 cells at 50 uM incubated for 18 hrs by Griess reagent based assay

SMILES | IC50 [1] [µM] | IC50 [2] [µM] | IC50 [3] [µM] | IC50 [4] [µM] | IC50 [5] [µM] | inhibition [6]
COc1cc(C)c2c3c(c(=O)oc2c1)C[C@@H]([C@@]1(C)CC[C@H]2C(C)(C)C(=O)CC[C@@]21C)O3 | > 40 | > 40 | > 40 | > 40 | > 40 | inactive
COc1cc(C)c2c3c(c(=O)oc2c1)C[C@@H]([C@@]1(C)CC[C@H]2C(C)(C)[C@@H](O)CC[C@@]21C)O3 | 3.6 | 3.7 | 15.3 | 13 | 27.1 | inactive
